We go through 27 compounds from US20220289679A1, “HETEROCYCLIC COMPOUND” (Takeda Pharmaceutical Company Limited, priority 2019, published 2022).

The target in this assay is T1, human GCS (glucosylceramide synthase) (Homo sapiens, UniProt Q16739).
T1 construct: made in house; host or cells: Expi293F cells (transient expression; microsome fraction)
T1 sequence (Q16739 1-394): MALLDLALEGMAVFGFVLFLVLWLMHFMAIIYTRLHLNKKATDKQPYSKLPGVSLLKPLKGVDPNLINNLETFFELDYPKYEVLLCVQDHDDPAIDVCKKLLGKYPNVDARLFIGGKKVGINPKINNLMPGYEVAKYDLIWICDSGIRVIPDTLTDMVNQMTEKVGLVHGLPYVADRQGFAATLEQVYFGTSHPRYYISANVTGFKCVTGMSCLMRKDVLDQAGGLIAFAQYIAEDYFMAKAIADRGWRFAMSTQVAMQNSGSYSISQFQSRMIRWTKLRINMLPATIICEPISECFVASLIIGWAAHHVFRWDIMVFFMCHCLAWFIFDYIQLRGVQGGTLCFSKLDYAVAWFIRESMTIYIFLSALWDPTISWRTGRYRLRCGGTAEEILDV
Nature of the assay: Glucosylceramide Synthase (GCS) Assay. It counts as biochemical. Particulars: test compound 10 μM; microsome fraction of Expi293F cells expressing human GCS; 1.7 μM UDP-glucose, 3 μM C8 ceramide; room temperature 60 min; C8 glucosylceramide by Rapidfire MS/MS; read-out: GCS enzyme inhibitory rate at 10 μM (%). The procedure, abridged: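 Test compounds were run at a final 10 μM against liposomal C8 ceramide (3 μM) and UDP-glucose at its Km (1.7 μM). Human GCS came as microsomes from transfected Expi293F cells, incubated 60 min at room temperature, pH 7.5. Product measured by RapidFire MS/MS; 0% and 100% inhibition were DMSO and no-enzyme wells.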
For the compound `O=C(Nc1ccc(F)cc1F)c1cn(C2COC2)nc(-c2ccccc2OCC(F)F)c1=O` [Example 182, 6-[2-(2,2-difluoroethoxy)phenyl]-N-(2,4-difluorophenyl)-2-(oxetan-3-yl)-5-oxo-2,5-dihydropyridazine-4-carboxamide], the inhibition at 10 µM stood at 90%.

On to `COc1cc(F)ccc1-n1cccc(C(=O)Nc2ccc(C3CC3)nc2)c1=O` [Example 7, N-(6-cyclopropylpyridin-3-yl)-1-(4-fluoro-2-methoxyphenyl)-2-oxo-1,2-dihydropyridine-3-carboxamide], for which the inhibition at 10 µM was 57%. Turning to `O=C(Nc1cnc(C(F)(F)F)nc1)c1cccn(-c2ccc(F)cc2OCC(F)(F)F)c1=O` [Example 36, 1-[4-fluoro-2-(2,2,2-trifluoroethoxy)phenyl]-2-oxo-N-[2-(trifluoromethyl)pyrimidin-5-yl]-1,2-dihydropyridine-3-carboxamide], the inhibition at 10 µM was 86%. As to `O=C(Nc1ccc(C(F)(F)F)nc1)c1cccn(-c2ccccc2OCC(F)(F)F)c1=O` [Example 20, 2-oxo-1-[2-(2,2,2-trifluoroethoxy)phenyl]-N-[6-(trifluoromethyl)pyridin-3-yl]-1,2-dihydropyridine-3-carboxamide], the inhibition at 10 µM came to 100%. With `Cc1cccc(OCC(F)(F)F)c1-n1cccc(C(=O)Nc2ccc(C(C)(C)O)cc2)c1=O` [Example 68, N-[4-(2-hydroxypropan-2-yl)phenyl]-1-[2-methyl-6-(2,2,2-trifluoroethoxy)phenyl]-2-oxo-1,2-dihydropyridine-3-carboxamide], the inhibition at 10 µM was found to be 97%.

Regarding `O=C(Nc1ccc(C2CCOC2)cc1)c1ccnn(-c2ccccc2OCC(F)F)c1=O` (racemic) [Example 145, rac-2-[2-(2,2-difluoroethoxy)phenyl]-3-oxo-N-[4-(oxolan-3-yl)phenyl]-2,3-dihydropyridazine-4-carboxamide], the inhibition at 10 µM worked out at 99%. `Cc1cc(C(=O)Nc2ccc(C(C)(C)O)cn2)c(=O)n(-c2ccccc2OCC(F)F)n1` [Example 137, 2-[2-(2,2-difluoroethoxy)phenyl]-N-[5-(2-hydroxypropan-2-yl)pyridin-2-yl]-6-methyl-3-oxo-2,3-dihydropyridazine-4-carboxamide]: the inhibition at 10 µM is 99%. For `CC(C)(O)c1ccc(NC(=O)c2cccn(-c3ccc(F)c(F)c3OCC(F)(F)F)c2=O)cc1` [Example 111, 1-[3,4-difluoro-2-(2,2,2-trifluoroethoxy)phenyl]-N-[4-(2-hydroxypropan-2-yl)phenyl]-2-oxo-1,2-dihydropyridine-3-carboxamide], the inhibition at 10 µM came out at 98%. Consider `CC(C)(O)c1ccc(NC(=O)c2cccn(-c3ccc(F)cc3OCC(F)F)c2=O)cc1` [Example 102, 1-[2-(2,2-difluoroethoxy)-4-fluorophenyl]-N-[4-(2-hydroxypropan-2-yl)phenyl]-2-oxo-1,2-dihydropyridine-3-carboxamide], for which the inhibition at 10 µM came out at 98%.

On to `CC(C)(O)COc1cc(F)ccc1-n1cccc(C(=O)Nc2ccc(OCC(F)(F)F)nc2)c1=O` [Example 67, 1-[4-fluoro-2-(2-hydroxy-2-methylpropoxy)phenyl]-2-oxo-N-[6-(2,2,2-trifluoroethoxy)pyridin-3-yl]-1,2-dihydropyridine-3-carboxamide], for which the inhibition at 10 µM came to 89%. For the compound `O=C(Nc1ccc(OCC(F)(F)F)nc1)c1cccn(-c2ccnnc2OCC(F)(F)F)c1=O` [Example 79, 2-oxo-1-[3-(2,2,2-trifluoroethoxy)pyridazin-4-yl]-N-[6-(2,2,2-trifluoroethoxy)pyridin-3-yl]-1,2-dihydropyridine-3-carboxamide], the inhibition at 10 µM came out at 87%. As to `O=C(Nc1ccc(C(O)(C(F)F)C(F)F)cc1)c1cn(C(F)F)nc(-c2ccccc2OCC(F)F)c1=O` [Example 163, 6-[2-(2,2-difluoroethoxy)phenyl]-2-(difluoromethyl)-5-oxo-N-[4-(1,1,3,3-tetrafluoro-2-hydroxypropan-2-yl)phenyl]-2,5-dihydropyridazine-4-carboxamide], the inhibition at 10 µM amounted to 100%. With `O=C(Nc1ccc(OCC(F)(F)F)nc1)c1cncn(-c2ccc(F)cc2OCC(F)(F)F)c1=O` [Example 93, 1-[4-fluoro-2-(2,2,2-trifluoroethoxy)phenyl]-6-oxo-N-[6-(2,2,2-trifluoroethoxy)pyridin-3-yl]-1,6-dihydropyrimidine-5-carboxamide], the inhibition at 10 µM was 99%. With `COc1cc(F)ccc1-n1cccc(C(=O)Nc2ccc(OC(F)F)nc2)c1=O` [Example 16, N-[6-(difluoromethoxy)pyridin-3-yl]-1-(4-fluoro-2-methoxyphenyl)-2-oxo-1,2-dihydropyridine-3-carboxamide], the inhibition at 10 µM stood at 69%. With `CC(C)(O)c1ccc(NC(=O)c2cc(C(C)(C)O)nn(-c3ccccc3OCC(F)(F)F)c2=O)cc1` [Example 202, 6-(2-hydroxypropan-2-yl)-N-[4-(2-hydroxypropan-2-yl)phenyl]-3-oxo-2-[2-(2,2,2-trifluoroethoxy)phenyl]-2,3-dihydropyridazine-4-carboxamide] the figure was 99%; with `COc1cc(F)ccc1-n1cccc(C(=O)Nc2ccn(-c3ccc(F)cc3)n2)c1=O` [Example 8, 1-(4-fluoro-2-methoxyphenyl)-N-[1-(4-fluorophenyl)-1H-pyrazol-3-yl]-2-oxo-1,2-dihydropyridine-3-carboxamide], 66%.

For `O=C(Nc1ccc(C(O)(C(F)F)C(F)F)nc1)c1cn(C2CC2)nc(-c2ccccc2OCC(F)F)c1=O` [Example 189, 2-cyclopropyl-6-[2-(2,2-difluoroethoxy)phenyl]-5-oxo-N-[6-(1,1,3,3-tetrafluoro-2-hydroxypropan-2-yl)pyridin-3-yl]-2,5-dihydropyridazine-4-carboxamide], the inhibition at 10 µM was 100%. Take `N#Cc1ccc(NC(=O)c2cccn(-c3ccccc3OCC(F)(F)F)c2=O)nc1` [Example 31, N-(5-cyanopyridin-2-yl)-2-oxo-1-[2-(2,2,2-trifluoroethoxy)phenyl]-1,2-dihydropyridine-3-carboxamide]: the inhibition at 10 µM stood at 92%. With `CC(O)c1ccc(NC(=O)c2ccnn(-c3ccccc3OCC(F)(F)F)c2=O)nc1` (racemic) [Example 140, rac-N-[5-(1-hydroxyethyl)pyridin-2-yl]-3-oxo-2-[2-(2,2,2-trifluoroethoxy)phenyl]-2,3-dihydropyridazine-4-carboxamide] the figure was 87%; with `CC(C)(O)c1ccc(NC(=O)c2ccnn(-c3ccccc3OCC(F)(F)F)c2=O)cn1` [Example 126, N-[6-(2-hydroxypropan-2-yl)pyridin-3-yl]-3-oxo-2-[2-(2,2,2-trifluoroethoxy)phenyl]-2,3-dihydropyridazine-4-carboxamide], 97%; with `N#Cc1cc(F)ccc1-n1cccc(C(=O)Nc2ccc(OCC(F)(F)F)nc2)c1=O` [Example 52, 1-(2-cyano-4-fluorophenyl)-2-oxo-N-[6-(2,2,2-trifluoroethoxy)pyridin-3-yl]-1,2-dihydropyridine-3-carboxamide], 85%. Under `CC(C)(O)c1ccc(NC(=O)c2cn(CC3COC3)nc(-c3ccccc3OCC(F)F)c2=O)cc1` [Example 180, 6-[2-(2,2-difluoroethoxy)phenyl]-N-[4-(2-hydroxypropan-2-yl)phenyl]-2-[(oxetan-3-yl)methyl]-5-oxo-2,5-dihydropyridazine-4-carboxamide] stands 96%. As to `CC(C)(O)c1ccc(NC(=O)c2ccnn(-c3ccccc3OCC(F)F)c2=O)nc1` [Example 132, 2-[2-(2,2-difluoroethoxy)phenyl]-N-[5-(2-hydroxypropan-2-yl)pyridin-2-yl]-3-oxo-2,3-dihydropyridazine-4-carboxamide], the inhibition at 10 µM came out at 96%. `Cc1cc(C(C)(C)O)ccc1NC(=O)c1ccnn(-c2ccccc2OCC(F)F)c1=O` [Example 143, 2-[2-(2,2-difluoroethoxy)phenyl]-N-[4-(2-hydroxypropan-2-yl)-2-methylphenyl]-3-oxo-2,3-dihydropyridazine-4-carboxamide]: the inhibition at 10 µM came to 97%. `CC(C)(O)c1ccc(NC(=O)c2ccnn(-c3ccccc3OCC(F)(F)F)c2=O)nc1` [Example 128, N-[5-(2-hydroxypropan-2-yl)pyridin-2-yl]-3-oxo-2-[2-(2,2,2-trifluoroethoxy)phenyl]-2,3-dihydropyridazine-4-carboxamide]: the inhibition at 10 µM came out at 98%. For the compound `COc1cc(F)ccc1-n1cccc(C(=O)Nc2ccc(OCC(F)(F)F)nc2)c1=O` [Example 5, 1-(4-fluoro-2-methoxyphenyl)-2-oxo-N-[6-(2,2,2-trifluoroethoxy)pyridin-3-yl]-1,2-dihydropyridine-3-carboxamide], the inhibition at 10 µM came to 68%. Take `O=C(Nc1ccc(C(O)(C(F)(F)F)C(F)(F)F)cc1)c1cccn(-c2ccccc2OCC(F)(F)F)c1=O` [Example 89, N-[4-(1,1,1,3,3,3-hexafluoro-2-hydroxypropan-2-yl)phenyl]-2-oxo-1-[2-(2,2,2-trifluoroethoxy)phenyl]-1,2-dihydropyridine-3-carboxamide]: the inhibition at 10 µM worked out at 100%.
